Source: PMC12040169 (PLOS Biology, 2025)

Test: in vitro
Conditions: human, hela cells, % viability

Row | SMILES | viability at 28.5 h, 10 µM
1 | CN(c1ccc(C(O)(C(F)(F)F)C(F)(F)F)cc1)S(=O)(=O)c1cccs1 [CBK067061] | 107%
2 | COc1ccc(C2N3CCCN2CC3)cc1 (stereo not shown) [CBK067068] | 92.3%
3 | Cc1nn(C)c(Cl)c1S(=O)(=O)Nc1cccc(-c2cnco2)c1 [CBK067107] | 78.8%
4 | Cc1noc(C)c1S(=O)(=O)Nc1cccc(-c2cnco2)c1 [CBK067108] | 97.1%
5 | O=S(=O)(Nc1cccc(-c2cnco2)c1)c1ccc(Br)cc1C(F)(F)F [CBK067118] | 93.4%
6 | O=S(=O)(Nc1cccc(-c2cnco2)c1)c1ccc(-c2cc(C(F)(F)F)on2)s1 [CBK067124] | 100%
7 | O=[N+]([O-])c1cc(S(=O)(=O)Nc2cccc(-c3cnco3)c2)ccc1Cl [CBK067125] | 95.7%
8 | O=S(=O)(Nc1cccc(-c2cnco2)c1)c1cc(C(F)(F)F)cc(C(F)(F)F)c1 [CBK067127] | 109%
9 | Cc1nn(C)c(Cl)c1S(=O)(=O)Nc1ccc2cn[nH]c2c1 [CBK067141] | 90.2%
10 | Cn1nc(-c2ccc(S(=O)(=O)Nc3ccc4cn[nH]c4c3)s2)cc1C(F)(F)F [CBK067156] | 92.8%
11 | N#Cc1cn(S(=O)(=O)c2cccc(C(F)(F)F)c2)nc1N [CBK067225] | 92.6%
12 | Cc1cc(NS(=O)(=O)c2cccc3cccnc23)n(C)n1 [CBK067242] | 89.1%
13 | Cc1cc(NS(=O)(=O)c2cccc([N+](=O)[O-])c2)n(C)n1 [CBK067243] | 99.2%
14 | Cc1cc(NS(=O)(=O)c2cccc3nsnc23)n(C)n1 [CBK067246] | 95.4%
15 | Cc1cc(NS(=O)(=O)c2cccc3nonc23)n(C)n1 [CBK067247] | 93.7%
16 | Cc1cc(NS(=O)(=O)c2ccc(Oc3ccccc3)cc2)n(C)n1 [CBK067249] | 96.2%
17 | Cc1cc(NS(=O)(=O)c2ccc3oc(=O)ccc3c2)n(C)n1 [CBK067250] | 99.6%
18 | Cc1cc(NS(=O)(=O)c2csc3ccccc23)n(C)n1 [CBK067251] | 89.5%
19 | Cc1cc(NS(=O)(=O)c2ccc(N3CCOCC3)nc2)n(C)n1 [CBK067253] | 117%
20 | Cc1cc(NS(=O)(=O)c2ccc(Cl)c(Cl)c2)n(C)n1 [CBK067254] | 109%
21 | Cc1cc(NS(=O)(=O)c2ccc(Br)cc2C(F)(F)F)n(C)n1 [CBK067255] | 107%
22 | Cc1cc(NS(=O)(=O)c2ccc(-c3ccon3)s2)n(C)n1 [CBK067257] | 85.4%
23 | Cc1cc(NS(=O)(=O)c2ccc(Cl)c([N+](=O)[O-])c2)n(C)n1 [CBK067259] | 96.8%

Row | SMILES | viability at 28.5 h, 10 µM
24 | Cc1cc(NS(=O)(=O)c2cc(C(=O)O)c(Cl)cc2F)n(C)n1 [CBK067260] | 102%
25 | Cc1cc(NS(=O)(=O)c2cc(C(F)(F)F)cc(C(F)(F)F)c2)n(C)n1 [CBK067261] | 105%
26 | Cc1noc(C)c1S(=O)(=O)Nc1nc(-c2cccnc2)cs1 [CBK067266] | 91.5%
27 | Cn1nc(-c2ccc(S(=O)(=O)Nc3nc(-c4cccnc4)cs3)s2)cc1C(F)(F)F [CBK067270] | 88.4%
28 | O=S(=O)(Nc1cc(-c2ccco2)n[nH]1)c1ccc(Br)cc1C(F)(F)F [CBK067286] | 96.2%
29 | O=C(O)c1cc(S(=O)(=O)Nc2cc(-c3ccco3)n[nH]2)c(F)cc1Cl [CBK067292] | 92.6%
30 | CCN(C(=O)CC1SC(NCC2CCCCC2)=NC1=O)c1ccccc1 (stereo not shown) [CBK067373] | 89.3%
31 | CC(C)(C)OC(=O)N1CCC(Oc2nccnc2Cl)CC1 [CBK067386] | 89.8%
32 | O=C1C2N=NN(Cc3ccccc3)C2C(=O)N1C1CCCCC1 (stereo not shown) [CBK067389] | 115%
33 | CC(C)CC(CC(C)C)OCC(=O)NCC1(c2ccc3ccccc3c2)CCC1 [CBK067404] | 109%
34 | CN1CC[C@]2(c3ccc4c(c3)nnn4C)CC[C@@H](NC(=O)Nc3cccc(C(F)(F)F)c3F)C[C@H]12 [CBK067410] | 99.9%
35 | COc1ccc([C@@]23CCC(N)C[C@@H]2N(C)CC3)c(F)c1OC (stereo partly shown) [CBK067416] | 78.3%
36 | Cc1cccc(S(=O)(=O)Nc2cc(OCCN3CCOCC3)c3occc3c2)c1 [CBK067420C] | 90.4%
37 | Cc1ccc(S(=O)(=O)NCC(=O)Nc2ccc3cc(Br)cnc3n2)cc1 [CBK067429] | 95.6%
38 | COc1ccccc1NC(=O)NCCC1SC(NC2CCCCCC2)=NC1=O (stereo not shown) [CBK067473] | 91.8%
39 | O=[N+]([O-])c1cnc(NS(=O)(=O)c2cccc(C(F)(F)F)c2)s1 [CBK067533] | 104%
40 | O=[N+]([O-])c1cnc(NS(=O)(=O)c2ccccc2Br)s1 [CBK067539] | 96.2%
41 | O=[N+]([O-])c1cnc(NS(=O)(=O)c2ccc(Br)cc2C(F)(F)F)s1 [CBK067541] | 99.6%
42 | Cn1nc(-c2ccc(S(=O)(=O)Nc3ncc([N+](=O)[O-])s3)s2)cc1C(F)(F)F [CBK067542] | 109%
43 | O=[N+]([O-])c1cnc(NS(=O)(=O)c2ccc(-c3ccon3)s2)s1 [CBK067543] | 95.2%
44 | Cn1nc(-c2ccc(S(=O)(=O)Nc3cccc(Cl)c3Cl)s2)cc1C(F)(F)F [CBK067548] | 92.2%
45 | CCCCc1ccc(-c2cnc(N)c3ncccc23)cc1 [CBK067588] | 75.7%
46 | CS(=O)(=O)c1ccc(-c2cnc(N)c3ncccc23)cc1 [CBK067593] | 90.5%

Row | SMILES | viability at 28.5 h, 10 µM
47 | Nc1ncc(-c2ccc(OC(F)(F)F)cc2)c2cccnc12 [CBK067594] | 98.7%
48 | Nc1cc2cccnc2nc1-c1cccnc1 [CBK067602] | 84.8%
49 | Nc1cc2cccnc2nc1-c1cc(F)cc(F)c1 [CBK067604] | 88.3%
50 | Nc1cc2cccnc2nc1-c1cccc2cccnc12 [CBK067609] | 99.9%
51 | COc1ccc(C(C)C)cc1-c1nc2ncccc2cc1N [CBK067614] | 95.8%
52 | Nc1ccc2ccc(-c3ccsc3)nc2n1 [CBK067624] | 89.4%
53 | Nc1ccc2ccc(-c3ccc4c(c3)CCO4)nc2n1 [CBK067625] | 90%
54 | CN(C)c1ccc(-c2ccnc3nc(N)ccc23)cc1 [CBK067640] | 85.8%
55 | CS(=O)(=O)c1ccc(-c2ccnc3nc(N)ccc23)cc1 [CBK067648] | 117%
56 | Nc1ccc2c(-c3ccc(OC(F)(F)F)cc3)ccnc2n1 [CBK067649] | 89.1%
57 | Cc1ccc(S(=O)(=O)Nc2ccnc(Cl)n2)cc1 [CBK067661] | 90.7%
58 | COc1ccc([C@@]23CC[C@@H](N)C[C@@H]2N(C(C)(C)C)CC3)cc1OC [CBK067673] | 114%
59 | O=C(NCCC1SC(NC2CCCCCC2)=NC1=O)Nc1ccc(C(F)(F)F)cc1Cl (stereo not shown) [CBK067682] | 89.9%
60 | O=C1N=C(NC2CCCCCC2)SC1CCNC(=O)N1CCOCC1 (stereo not shown) [CBK067687] | 110%
61 | CSc1nnc(-c2sccc2OCc2ccc(Cl)cc2Cl)n1C [CBK067693] | 111%
62 | O=C(NCc1n[nH]c(=S)n1-c1cccc(C(F)(F)F)c1)c1cccs1 [CBK067697] | 91.2%
63 | Cn1c(SCC(=O)c2ccc(Cl)cc2)nnc1-c1cnccc1C(F)(F)F [CBK067698] | 110%
64 | CSc1nnc(-c2cccs2)n1C [CBK067702] | 87.9%
65 | O=c1c(-c2nnc(SCc3cccc(C(F)(F)F)c3)o2)cccn1Cc1ccccc1 [CBK067712] | 108%
66 | Cc1nc(-c2nnc(SCc3ccc(C(F)(F)F)cc3)o2)cs1 [CBK067715] | 95.1%
67 | Cc1cc(-c2nnc(SCc3ccc(Cl)cc3)n2C)no1 [CBK067720] | 112%
68 | Cc1sc(-c2c(F)cccc2F)nc1O [CBK067729] | 102%
69 | Cc1sc(-c2ccc(Cl)nc2)nc1OC(=O)c1cccs1 [CBK067733] | 94.5%

Row | SMILES | viability at 28.5 h, 10 µM
70 | CC(C)(C)c1ccc(-c2nc(O)c(CC(=O)O)s2)cc1 [CBK067734] | 99.6%
71 | CC(=O)Nc1onc(C)c1-c1nc(-c2ccc(Cl)cc2Cl)cs1 [CBK067735] | 101%
72 | Cc1sc(-c2cnccn2)nc1O [CBK067738] | 97.3%
73 | COc1ccc(/C=C2\SC(Nc3ccc(Cl)c(C(=O)O)c3)=NC2=O)cc1C [CBK067743] | 99.1%
74 | Cc1sc(-c2cccs2)nc1OC(=O)c1cccc(C(F)(F)F)c1 [CBK067748] | 96.1%
75 | O=C1N/C(=N/c2ccccc2Cl)S/C1=C/c1ccc(-c2ccccc2Cl)o1 [CBK067752] | 89.3%
76 | Cc1nn(-c2ccccc2)c(O)c1Cc1c(Cl)cccc1Cl [CBK067760] | 98.1%
77 | CC1=NN(c2ccc(Cl)c(Cl)c2)C(=O)C1 [CBK067761] | 100%
78 | O=C1CC(c2cccnc2)=NN1c1ccc(Cl)cc1Cl [CBK067764] | 97.7%
79 | COc1cccc(CCN2N=C(C)CC2=O)c1OC [CBK067766] | 100%
80 | Cc1cc(SCC2=NNC(=O)C2)c(Cl)cc1Cl [CBK067769] | 92.8%
81 | CC1=NN(c2ccccc2)C(=O)C1C(=O)c1ccc(Br)cc1 (stereo not shown) [CBK067771] | 98.1%
82 | CN1N=C(c2ccccc2)CC1=O [CBK067774] | 96.4%
83 | Cc1nn(C)c(Cl)c1S(=O)(=O)Nc1cc(NC2CCNC2)c2occc2c1 (stereo not shown) [CBK067807C] | 99.3%
84 | CCN(CC)C(=O)c1sc2ccccc2c1Cl [CBK067853] | 103%
85 | O=C1N=C(NC2CCCCCC2)SC1Cc1ccc(O)cc1 (stereo not shown) [CBK067868] | 109%
86 | CCN1CCC[C@@H]1CNc1cc(NS(=O)(=O)c2cccs2)cc2ccoc12 [CBK067904C] | 83.3%
87 | O=C1N=C(NCC2CCCCC2)SC1CC(=O)N1CCCC(O)C1 (stereo not shown) [CBK067919] | 109%
88 | CCN(CC)C(=O)CC1SC(NCC2CCCCC2)=NC1=O (stereo not shown) [CBK067923] | 92.9%
89 | CC1CCCCN1CCCNc1cc(NS(=O)(=O)c2cn(C)cn2)cc2ccoc12 (stereo not shown) [CBK067940C] | 94.5%
90 | O=C1N=C(NC2CCCCC2)SC1Cc1nc2ccccc2o1 (stereo not shown) [CBK067970] | 96.4%
91 | O=S(=O)(c1ccc(Cl)cc1)N1CCN(c2ccccc2)CC1 [CBK067987] | 100%
